Measured values as given in patent US10987322B2, “Immunoregulatory agents” (FLEXUS BIOSCIENCES, INC., priority 2014, dated 2021).

Each compound was assayed against IDO (Homo sapiens, UniProt P14902) (assay: IDO enzyme activity assay). Conditions: read-out: Potency: IDO IC50.
Sequence of IDO (P14902 whole entry): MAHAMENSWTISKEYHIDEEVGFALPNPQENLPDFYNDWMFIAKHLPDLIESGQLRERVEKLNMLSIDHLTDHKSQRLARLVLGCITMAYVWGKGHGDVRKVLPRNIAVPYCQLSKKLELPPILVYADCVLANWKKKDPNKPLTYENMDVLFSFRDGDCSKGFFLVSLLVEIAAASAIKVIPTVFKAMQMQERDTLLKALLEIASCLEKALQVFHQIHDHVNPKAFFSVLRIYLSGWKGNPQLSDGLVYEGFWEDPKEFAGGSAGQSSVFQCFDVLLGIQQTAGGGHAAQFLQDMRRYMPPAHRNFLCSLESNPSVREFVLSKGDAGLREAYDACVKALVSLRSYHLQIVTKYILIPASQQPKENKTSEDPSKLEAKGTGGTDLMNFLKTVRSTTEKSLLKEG
Type: biochemical
Procedure: An IDO enzyme assay and cellular production of kynurenine (KYN) is described in Sarkar, S. A. et al., Diabetes 56:72-79 (2007). Briefly, all chemicals can be purchased from Sigma-Aldrich (St. Louis, Mo.) unless specified otherwise. Groups of 1,000 human islets can be cultured for 24 h in 1 mL medium with cytokines, recovered by centrifugation for 5 min at 800×g and sonicated in 150 μL PBS containing a protease inhibitor cocktail (Set 2; Calbiochem, EMD Biosciences, San Diego, Calif.). The sonicate can be centrifuged for 10 min at 10,000×g, and the supernatant can be assayed in triplicate by incubating a 40 μl sample with an equal volume of 100 mmol/L potassium phosphate buffer, pH 6.5, containing 40 mmol/L ascorbic acid (neutralized to pH 7.0), 100 μmol/L methylene blue, 200 μg/mL catalase, and 400 μmol/l L-Trp for 30 min at 37° C. The assay can be terminated by the addition of 16 μL 30% (w/v) trichloroacetic acid (TCA) and further incubated at 60° C. for 15 min to hydrolyze N-formylkynurenine to KYN. The mixture can then be centrifuged at 12,000 rpm for 15 min, and KYN can be quantified by mixing equal volume of supernatant with 2% (w/v) Ehrlich's reagent in glacial acetic acid in 96-well microtiter plate and reading the absorbance at 480 nm using L-KYN as standard. Protein in the islet samples can be quantified by Bio-Rad Protein assay at 595 nm. For the detection of L-KYN in the islet culture supernatants, proteins can be precipitated with 5% (w/v) TCA and centrifuged at 12,000 rpm for 15 min, and determination of KYN in the supernatant with Ehrlich's reagent can be determined as described above. IL-4 ([…]; 500-2,000 units/mL) and 1-α-methyl Trp (1-MT; 40 μmol/L) can be added to the incubation media as indicated. This assay can also form the basis of a cell-based assay, and may be quantified via LCMS/MS as an alternative to UV/Vis detection.
cDNA clones for both human and mouse IDO have been isolated and verified by sequencing and are commercially available. In order to prepare IDO for biochemical studies, C-terminal His-tagged IDO protein can be produced in E. coli using the IPTG-inducible pET5a vector system and isolated over a nickel column. The yield of the partially purified protein can be verified by gel electrophoresis and the concentration estimated by comparison to protein standards. To assay IDO enzymatic activity, a 96-well plate spectraphotometric assay for kynurenine production can be run following published procedures (see, e.g., Littlejohn, T. K., et al. (2000) Prot. Exp. Purif. 19:22-29). To screen for IDO inhibitory activity, compounds can be evaluated at a single concentration of, for example, 200 μM against 50 ng of IDO enzyme in 100 μL reaction volumes with tryptophan added at increasing concentrations at, for example, 0, 2, 20, and 200 μM. Kynurenine production can be measured at 1 hour.
`O/N=C(/CC(O)C1CCCCC1)Nc1cccc(Cl)c1` (stereo not drawn) gave an IC50 of under 10 µM.
`O/N=C(/CC(O)C1CCCCC1)Nc1ccc(F)c(F)c1` (stereo not drawn) gave an IC50 of under 100 µM.
With `O/N=C(/CC(O)C1CCCCC1)Nc1ccc(Cl)c(F)c1` (stereo not drawn) the IC50 was under 100 µM.
In the case of `O/N=C(/CC(O)C1CCCCC1)Nc1cccc(F)c1` (stereo not drawn), the IC50 is reported as under 100 µM.
Compound `O/N=C(/CC(O)C1CCCCC1)Nc1cc(Cl)cc(Cl)c1` (stereo not drawn) has an IC50 of under 10 µM.
`CC/C(=N/O)Nc1cccc(Cl)c1` gave an IC50 of under 10 µM.
`O/N=C(/CCC1CCCCC1)Nc1cccc(Cl)c1` showed an IC50 of under 1 µM.
In the case of `O/N=C(/CC(O)C1CCCCC1)Nc1cccc(C(F)(F)F)c1` (stereo not drawn), the IC50 is reported as under 100 µM.
In the case of `O/N=C(/CC(O)C1CCCCC1)Nc1cc(F)cc(Cl)c1` (stereo not drawn), the IC50 is reported as under 100 µM.
For `O/N=C(\Nc1cccc(Cl)c1)C1CCCC1`, the IC50 was under 10 µM.
`O/N=C(/CC1CCCCC1)Nc1cccc(Cl)c1` gave an IC50 of under 1 µM.
`O/N=C(/CC1CCCC1)Nc1cccc(Cl)c1` gave an IC50 of under 1 µM.
With `O/N=C(/CCC1CCCC1)Nc1cccc(Cl)c1` the IC50 was under 1 µM.
Work on `CCC/C(=N/O)Nc1cccc(Cl)c1` yielded an IC50 of under 1 µM.
Compound `CCCC/C(=N/O)Nc1cccc(Cl)c1` has an IC50 of under 1 µM.
`CC(C)C/C(=N/O)Nc1cccc(Cl)c1` was tested, and the IC50 was under 1 µM.
`CCCCC/C(=N/O)Nc1cccc(Cl)c1` gave an IC50 of under 1 µM.
Work on `O/N=C(/CC1CCCO1)Nc1cccc(Cl)c1` (stereo not drawn) yielded an IC50 of under 10 µM.
`CC(C)CC/C(=N/O)Nc1cccc(Cl)c1` showed an IC50 of under 1 µM.
With `OCCCC/C(=N/O)Nc1cccc(Cl)c1` the IC50 was under 10 µM.
In the case of `O/N=C(/CC1CCCC1O)Nc1cccc(Cl)c1` (stereo not drawn), the IC50 is reported as under 10 µM.
`CC(C)(C)C/C(=N/O)Nc1cccc(Cl)c1` gave an IC50 of under 100 µM.
`CCCCCC/C(=N/O)Nc1cccc(Cl)c1` showed an IC50 of under 1 µM.
Compound `O/N=C(/CC1CC1)Nc1cccc(Cl)c1` has an IC50 of under 1 µM.
